Structures can show the parent of a compound that is named as a salt.

24 compounds from patent US10272095B2 (GlaxoSmithKline Intellectual Property Development Limited, priority 2015, dated 2019) can be followed below.

In the experiment the test system is NQO1 specific enzyme activity in BEAS-2B cells. As to the kind of experiment: BEAS-2B NQO1 MTT assay. The following applies: Homo sapiens, BEAS-2B, 48 h, NQO1 specific enzyme activity induction in BEAS-2B cells, 48 hours; read-out: EC50. The experiment is classed as cell-based. The procedure, abridged:
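BEAS-2B cells exposed to compound 48 h at 37° C, 5% CO2, then lysed. NQO1 activity read kinetically in lysate with MTT cocktail (absorbance 570 nm, 30 min); Cell Titer Glo run on a lysate aliquot. pEC50 from ΔOD/min versus log concentration, 3-parameter fit.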
A general note: Formazan colour is commonly taken as a measure of viable cells.
As usually defined, the EC50 is the concentration at which the effect is half-maximal. For `COc1cc(C(CC(=O)O)c2ccc3c(c2)C(N2Cc4cccnc4OC(C)(C)C2)CC3)c(C)c2nnn(C)c12` (stereo not drawn) [Example 44, 3-(3-(2,2-Dimethyl-2,3-dihydropyrido[3,2-f][1,4]oxazepin-4(5H)-yl)-2,3-dihydro-1H-inden-5-yl)-3-(7-methoxy-1,4-dimethyl-1H-benzo[d][1,2,3]triazol-5-yl)propanoic Acid, Formic Acid Salt], the EC50 fell in the range of 1 to 10 nM.
For `CC[C@@H]1CN(C2CCc3ccc(C(CC(=O)O)c4cc(OC)c5c(nnn5C)c4C)cc32)Cc2ccccc2O1` (stereo partly drawn) [Example 45, 3-(3-((R)-2-Ethyl-2,3-dihydrobenzo[f][1,4]oxazepin-4(5H)-yl)-2,3-dihydro-1H-inden-5-yl)-3-(7-methoxy-1,4-dimethyl-1H-benzo[d][1,2,3]triazol-5-yl)propanoic Acid, Formic Acid Salt], the EC50 is 10 to 100 nM.
With `COc1cc(C(CC(=O)O)c2ccc3c(c2)C(N2Cc4cnccc4OC(C)(C)C2)CC3)cc2nnn(C)c12` (stereo not drawn) [Example 46, 3-(3-(2,2-Dimethyl-2,3-dihydropyrido[3,4-f][1,4]oxazepin-4(5H)-yl)-2,3-dihydro-1H-inden-5-yl)-3-(7-methoxy-1-methyl-1H-benzo[d][1,2,3]triazol-5-yl)propanoic Acid, Formic Acid Salt], the 50% effective concentration (EC50) lay within 10 to 100 nM.
The value for `Cc1ccc2c(c1)CN(C1CCc3ccc(C(CC(=O)O)c4ccc5c(nnn5C)c4C)cc31)C[C@@H](C)O2` (stereo partly drawn) [Example 47, 3-(1,4-Dimethyl-1H-benzo[d][1,2,3]triazol-5-yl)-3-(3-((R)-2,7-dimethyl-2,3-dihydrobenzo[f][1,4]oxazepin-4(5H)-yl)-2,3-dihydro-1H-inden-5-yl)propanoic Acid, Formic Acid Salt] was 10 to 100 nM; that for `Cc1c(C(CC(=O)O)c2ccc3c(c2)C(N2Cc4cnccc4OC(C)(C)C2)CC3)ccc2c1nnn2C` (stereo not drawn) [Example 48, 3-(1,4-Dimethyl-1H-benzo[d][1,2,3]triazol-5-yl)-3-(3-(2,2-dimethyl-2,3-dihydropyrido[3,4-f][1,4]oxazepin-4(5H)-yl)-2,3-dihydro-1H-inden-5-yl)propanoic Acid, Formic Acid Salt] was 10 to 100 nM.
With `Cc1c(C(c2ccc3c(c2)C(N2Cc4cccnc4O[C@@H](C)C2)CC3)C(C)(C)C(=O)O)ccc2c1nnn2C` (stereo partly drawn) [Example 49, 3-(1,4-Dimethyl-1H-benzo[d][1,2,3]triazol-5-yl)-2,2-dimethyl-3-(3-((S)-2-methyl-2,3-dihydropyrido[3,2-f][1,4]oxazepin-4(5H)-yl)-2,3-dihydro-1H-inden-5-yl)propanoic Acid, Formic Acid Salt], the 50% effective concentration (EC50) was 10 to 100 nM.
In the case of `CC[C@@H]1CN(C2CCc3ccc(C(CC(=O)O)c4ccc5c(nnn5C)c4C)cc32)Cc2ccccc2O1` (stereo partly drawn) [Example 50, 3-(1,4-Dimethyl-1H-benzo[d][1,2,3]triazol-5-yl)-3-(3-((R)-2-ethyl-2,3-dihydrobenzo[f][1,4]oxazepin-4(5H)-yl)-2,3-dihydro-1H-inden-5-yl)propanoic Acid, Formic Acid Salt], the EC50 lay within 10 to 100 nM.
As for `Cc1c(C(CC(=O)O)c2ccc3c(c2)C(N2Cc4cccnc4OC(C)(C)C2)CC3)ccc2c1nnn2C` (stereo not drawn) [Example 51], the EC50 is 10 to 100 nM.
Consider `COc1cc(C(CC(=O)O)c2ccc3c(c2)C(N2CCOc4ccccc4C2)CC3)c(C)c2nnn(C)c12` (stereo not drawn) [Example 52, 3-(3-(2,3-Dihydrobenzo[f][1,4]oxazepin-4(5H)-yl)-2,3-dihydro-1H-inden-5-yl)-3-(7-methoxy-1,4-dimethyl-1H-benzo[d][1,2,3]triazol-5-yl)propanoic Acid, Formic Acid Salt], for which the EC50 was in the range of 10 to 100 nM.
The value for `Cc1c(C(CC(=O)O)c2ccc3c(c2)C(N2Cc4ccccc4O[C@H](C)C2)CC3)ccc2c1nnn2C` (stereo partly drawn) [Example 53, 3-(1,4-Dimethyl-1H-benzo[d][1,2,3]triazol-5-yl)-3-(3-((R)-2-methyl-2,3-dihydrobenzo[f][1,4]oxazepin-4(5H)-yl)-2,3-dihydro-1H-inden-5-yl)propanoic Acid] was 100 to 1000 nM; that for `Cc1c(C(c2ccc3c(c2)C(N2CCOc4ncccc4C2)CC3)C(C)(C)C(=O)O)ccc2c1nnn2C` (stereo not drawn) [Example 54, 3-(3-(2,3-Dihydropyrido[3,2-f][1,4]oxazepin-4(5H)-yl)-2,3-dihydro-1H-inden-5-yl)-3-(1,4-dimethyl-1H-benzo[d][1,2,3]triazol-5-yl)-2,2-dimethylpropanoic Acid, Formic Acid Salt, Formic Acid Salt] was 100 to 1000 nM; that for `COc1cc(C(CC(=O)O)c2ccc3c(c2)C(N2Cc4cccnc4OC(C)(C)C2)CC3)cc2nnn(C)c12` (stereo not drawn) [Example 55, 3-(3-(2,2-Dimethyl-2,3-dihydropyrido[3,2-f][1,4]oxazepin-4(5H)-yl)-2,3-dihydro-1H-inden-5-yl)-3-(7-methoxy-1-methyl-1H-benzo[d][1,2,3]triazol-5-yl)propanoic Acid, Formic Acid Salt] was 100 to 1000 nM.
The value for `Cc1c(C(CC(=O)O)c2ccc3c(c2)C(N2Cc4ccccc4O[C@@H](C)C2)CC3)ccc2c1nnn2C` (stereo partly drawn) [Example 56, 3-(1,4-Dimethyl-1H-benzo[d][1,2,3]triazol-5-yl)-3-(3-((S)-2-methyl-2,3-dihydrobenzo[f][1,4]oxazepin-4(5H)-yl)-2,3-dihydro-1H-inden-5-yl)propanoic Acid, Formic Acid Salt] was 100 to 1000 nM.
On to `CC[C@@H]1CN(C2CCc3ccc(C(CC(=O)O)c4ccc5c(nnn5C)c4C)cc32)Cc2cnccc2O1` (stereo partly drawn) [Example 57, 3-(1,4-Dimethyl-1H-benzo[d][1,2,3]triazol-5-yl)-3-(3-((R)-2-ethyl-2,3-dihydropyrido[3,4-f][1,4]oxazepin-4(5H)-yl)-2,3-dihydro-1H-inden-5-yl)propanoic Acid, Formic Acid Salt], for which the EC50 is 100 to 1000 nM.
Turning to `Cc1c(C(CC(=O)O)c2ccc3c(c2)C(N2CCOc4ccccc4C2)CC3)ccc2c1nnn2C` (stereo not drawn) [Example 58, 3-(3-(2,3-Dihydrobenzo[f][1,4]oxazepin-4(5H)-yl)-2,3-dihydro-1H-inden-5-yl)-3-(1,4-dimethyl-1H-benzo[d][1,2,3]triazol-5-yl)propanoic Acid, Formic Acid Salt], the EC50 was 100 to 1000 nM.
Turning to `Cc1cc(C#N)ccc1C(CC(=O)O)c1ccc2c(c1)C(N1Cc3cccnc3OC(C)(C)C1)CC2` (stereo not drawn) [Example 59, 3-(4-Cyano-2-methylphenyl)-3-(3-(2,2-dimethyl-2,3-dihydropyrido[3,2-f][1,4]oxazepin-4(5H)-yl)-2,3-dihydro-1H-inden-5-yl)propanoic Acid, Formic Acid Salt], the 50% effective concentration (EC50) lay in the range of 100 to 1000 nM.
The value for `Cc1cc(F)ccc1C(CC(=O)O)c1ccc2c(c1)C(N1Cc3cccnc3OC(C)(C)C1)CC2` (stereo not drawn) [Example 60, 3-(3-(2,2-Dimethyl-2,3-dihydropyrido[3,2-f][1,4]oxazepin-4(5H)-yl)-2,3-dihydro-1H-inden-5-yl)-3-(4-fluoro-2-methylphenyl)propanoic Acid, Formic Acid Salt] was 100 to 1000 nM; that for `Cc1c(C(CC(=O)O)c2ccc3c(c2)C(N2Cc4cccnc4O[C@H](C)C2)CC3)ccc2c1nnn2C` (stereo partly drawn) [Example 61, 3-(1,4-Dimethyl-1H-benzo[d][1,2,3]triazol-5-yl)-3-(3-((R)-2-methyl-2,3-dihydropyrido[3,2-f][1,4]oxazepin-4(5H)-yl)-2,3-dihydro-1H-inden-5-yl)propanoic Acid, Formic Acid Salt] was 1000 to 10000 nM.
The value for `Cn1nnc2cc(C(CC(=O)O)c3ccc4c(c3)C(N3Cc5cccnc5OC(C)(C)C3)CC4)ncc21` (stereo not drawn) [Example 62, 3-(3-(2,2-Dimethyl-2,3-dihydropyrido[3,2-f][1,4]oxazepin-4(5H)-yl)-2,3-dihydro-1H-inden-5-yl)-3-(3-methyl-3H-[1,2,3]triazolo[4,5-c]pyridin-6-yl)propanoic Acid, Formic Acid Salt] was 1000 to 10000 nM; that for `CCCc1cn(CCC(CC(=O)O)c2ccc3c(c2)C(N2Cc4ccccc4OC(C)(C)C2)CC3)nn1` (stereo not drawn) [Example 63, 3-(3-(2,2-Dimethyl-2,3-dihydrobenzo[f][1,4]oxazepin-4(5H)-yl)-2,3-dihydro-1H-inden-5-yl)-5-(4-propyl-1H-1,2,3-triazol-1-yl)pentanoic Acid, Trifluoroacetic Acid Salt] was 1000 to 10000 nM.
On to `CCn1nnc(CCC(c2ccc3c(c2)C(N2Cc4ccccc4OC(C)(C)C2)CC3)C(C)(C)C(=O)O)n1` (stereo not drawn) [Example 64, 3-(3-(2,2-dimethyl-2,3-dihydrobenzo[f][1,4]oxazepin-4(5H)-yl)-2,3-dihydro-1H-inden-5-yl)-5-(2-ethyl-2H-tetrazol-5-yl)-2,2-dimethylpentanoic Acid, Trifluoroacetic Acid Salt], for which the 50% effective concentration (EC50) is 10 to 100 nM.
The value for `CCCc1cn(CCC(c2ccc3c(c2)C(N2Cc4ccccc4OC(C)(C)C2)CC3)C(C)(C)C(=O)O)nn1` (stereo not drawn) [Example 65, 3-(3-(2,2-Dimethyl-2,3-dihydrobenzo[f][1,4]oxazepin-4(5H)-yl)-2,3-dihydro-1H-inden-5-yl)-2,2-dimethyl-5-(4-propyl-1H-1,2,3-triazol-1-yl)pentanoic Acid, Trifluoroacetic Acid Salt] was 10 to 100 nM; that for `Cc1c(C(CC(=O)O)c2ccc3c(c2)C(N2Cc4ccccc4O[C@H](C)C2)CCC3)ccc2c1nnn2C` (stereo partly drawn) [Example 66, 3-(1,4-Dimethyl-1H-benzo[d][1,2,3]triazol-5-yl)-3-(8-((R)-2-methyl-2,3-dihydrobenzo[f][1,4]oxazepin-4(5H)-yl)-5,6,7,8-tetrahydronaphthalen-2-yl)propanoic Acid] was 100 to 1000 nM; that for `Cc1c([C@H](c2ccc3c(c2)[C@H](N2Cc4cnccc4OC(C)(C)C2)CC3)C(C)(C)C(=O)O)ccc2c1nnn2C` [Example 86, 3-(1,4-Dimethyl-1H-benzo[d][1,2,3]triazol-5-yl)-3-(3-(2,2-dimethyl-2,3-dihydropyrido[3,4-f][1,4]oxazepin-4(5H)-yl)-2,3-dihydro-1H-inden-5-yl)-2,2-dimethylpropanoic Acid] was below 1 nM.
